Reference: patent US10975068B2, “6-aminopyridin-3-yl thiazoles as modulators of RORγT” (Janssen Pharmaceutica NV, priority 2016, dated 2021)
Read-outs that look alike come from different tables or passages of the source.

What was measured:
[1] = molecular target: human RORγt ligand binding domain (RORγt LBD) (Homo sapiens (Human), UniProt P51449); assay: RORγt ThermoFluor® assay (thermal shift binding)
Method in brief: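 His-tagged human RORγt LBD (0.065 mg/mL) with 60 μM 1,8-ANS in 100 mM Hepes pH 7.0, 10 mM NaCl, 2.5 mM GSH, 0.002% Tween-20 was heated at 1 °C/min.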

full-length human RORγt = full-length human RORγt (Homo sapiens (Human), UniProt P51449); assay: RORγt (full-length human) reporter assay, Conditions B or C; format: cell-based; settings: for inhibition at 3 µM: at 3 μM compound concentration; for RORγt (FL) Reporter Assay B or C, % inhibition (value marked *): marked *: footnote not given
Chain of full-length human RORγt (P51449 other isoform, or with tags, fused parts or gaps): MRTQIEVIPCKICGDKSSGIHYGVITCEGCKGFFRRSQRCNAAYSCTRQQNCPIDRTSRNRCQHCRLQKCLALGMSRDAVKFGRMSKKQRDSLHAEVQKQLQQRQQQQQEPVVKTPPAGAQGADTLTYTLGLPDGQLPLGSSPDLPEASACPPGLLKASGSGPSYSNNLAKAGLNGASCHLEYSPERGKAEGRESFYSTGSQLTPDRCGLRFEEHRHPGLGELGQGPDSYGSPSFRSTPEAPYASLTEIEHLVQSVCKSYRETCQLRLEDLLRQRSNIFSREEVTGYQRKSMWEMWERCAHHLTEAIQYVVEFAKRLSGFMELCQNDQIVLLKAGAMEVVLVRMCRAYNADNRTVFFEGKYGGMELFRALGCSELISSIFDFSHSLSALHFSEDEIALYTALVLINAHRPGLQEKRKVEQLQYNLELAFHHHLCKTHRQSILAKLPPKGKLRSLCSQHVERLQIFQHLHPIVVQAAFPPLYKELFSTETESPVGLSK
Method in brief: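 HEK293T cells transiently co-transfected with GAL4-DBD–full-length human RORγt (nt 142-1635, NM_001001523.1) plus GAL4-firefly and CMV-Renilla luciferase reporters; compounds added 4-6 h post-transfection for 16-20 h in 1.3% FBS, 0.1% DMSO. Firefly signal normalized to DMSO and saturating reference compound, then to Renilla; IC50 from concentration plots.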

[2] = read-out: ThermoFluor® Assay, Kd
[3] = read-out: RORγt (FL) Reporter Assay B or C, % inhibition
[4] = read-out: RORγt (FL) Reporter Assay B or C, IC50
[5] = Conditions B or C, read-out: RORγt (FL) Reporter Assay B or C, IC50

Chain of human RORγt ligand binding domain (RORγt LBD) (P51449 other isoform, or with tags, fused parts or gaps): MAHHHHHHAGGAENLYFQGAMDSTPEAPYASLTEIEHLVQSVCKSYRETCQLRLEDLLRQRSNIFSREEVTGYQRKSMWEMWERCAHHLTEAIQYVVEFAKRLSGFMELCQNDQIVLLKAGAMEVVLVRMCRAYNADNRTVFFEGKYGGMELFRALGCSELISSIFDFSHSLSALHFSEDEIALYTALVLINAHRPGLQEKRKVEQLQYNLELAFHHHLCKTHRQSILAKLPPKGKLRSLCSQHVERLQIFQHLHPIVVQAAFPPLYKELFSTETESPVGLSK

SMILES | Kd [1, 2] [nM] | inhibition at 3 µM (full-length human RORγt; [3]) [%] | IC50 (full-length human RORγt; [4]) [nM] | also measured
C[C@H](NC(=O)c1nc(C(=O)N2CCC[C@@H]2C)c(-c2cnc(N[C@H](C3CC3)C(F)(F)F)cc2C(F)F)s1)C(C)(C)O [Example 333, 5-(6-(((R)-1-Cyclopropyl-2,2,2-trifluoroethyl)amino)-4-(difluoromethyl)pyridin-3-yl)-N—((S)-3-hydroxy-3-methylbutan-2-yl)-4-((S)-2-methylpyrrolidine-1-carbonyl)thiazole-2-carboxamide] | 0.78 | 98 | 30 | –
C[C@H](Nc1cc(C(F)F)c(-c2sc(C(=O)NC3CCOCC3)nc2C(=O)N2CCC[C@@H]2C)cn1)C(F)(F)F [Example 287, 5-(4-(Difluoromethyl)-6-(((S)-1,1,1-trifluoropropan-2-yl)amino)pyridin-3-yl)-4-((S)-2-methylpyrrolidine-1-carbonyl)-N-(tetrahydro-2H-pyran-4-yl)thiazole-2-carboxamide] | 4.3 | 109 | 34 | –
C[C@H]1CCCN1C(=O)c1nc(C(=O)NC2(CO)COC2)sc1-c1cnc(NC(C)(C)C)cc1C(F)(F)F [Example 261, 5-[6-(tert-Butylamino)-4-(trifluoromethyl)-3-pyridyl]-N-[3-(hydroxymethyl)oxetan-3-yl]-4-[(2S)-2-methylpyrrolidine-1-carbonyl]thiazole-2-carboxamide] | 2.6 | 104 | 23 | –
C[C@H](Nc1cc(C(F)(F)F)c(-c2sc(C(=O)N[C@H]3COC[C@H]3O)nc2C(=O)N2C3CCC2CC3)cn1)C(F)(F)F (single isomer, unassigned) [Example 255, 4-((1s,4s)-7-Azabicyclo[2.2.1]heptane-7-carbonyl)-N-((3S*,4S*)-4-hydroxytetrahydrofuran-3-yl)-5-(4-(trifluoromethyl)-6-(((S)-1,1,1-trifluoropropan-2-yl)amino)pyridin-3-yl)thiazole-2-carboxamide] | – | – | – | Kd ([1]; ThermoFluor® Assay, Kd): 16 nM; IC50 (full-length human RORγt; RORγt (FL) Reporter Assay B or C, IC50): 160 nM; inhibition at 1 µM (full-length human RORγt; at 1 μM compound concentration, read-out: RORγt (FL) Reporter Assay B or C, % inhibition): 78%
C[C@H](Nc1cc(C(F)F)c(-c2sc(C(=O)N[C@@H](C)C(C)(C)O)nc2C(=O)N2CC(F)(F)C[C@@H]2C)cn1)C1CC1 [Example 193, 5-(6-(((S)-1-Cyclopropylethyl)amino)-4-(difluoromethyl)pyridine-3-yl)-4-((S)-4,4-difluoro-2-methylpyrrolidine-1-carbonyl)-N—((S)-3-hydroxy-3-methylbutan-2-yl)thiazole-2-carboxamide] | 2.6 | – | – | RORγt (FL) Reporter Assay B or C, % inhibition (value marked *) (full-length human RORγt; Conditions B or C): 82* %; IC50 (full-length human RORγt; [5]): 32 nM
C[C@H]1CCCN1C(=O)c1nc(C(=O)NCC(C)(C)O)sc1-c1cnc(NC(C2CC2)C(F)(F)F)cc1C(F)F (stereo partly drawn) [Example 294] | 1.3 | 100 | 13 | –
C[C@H](Nc1cc(C(F)F)c(-c2sc(C(=O)NC3CCC3O)nc2C(=O)N2CCC[C@@H]2C)cn1)C(F)(F)F (stereo partly drawn) [Example 386, 5-(4-(Difluoromethyl)-6-(((S)-1,1,1-trifluoropropan-2-yl)amino)pyridin-3-yl)-N-(trans-2-hydroxycyclobutyl)-4-((S)-2-methylpyrrolidine-1-carbonyl)thiazole-2-carboxamide] | 9.4 | 99 | 72 | –
C[C@H]1CCCN1C(=O)c1nc(C(=O)NC2CCOCC2)sc1-c1cnc(NC(C)(C)C)cc1C(F)(F)F [Example 374, 5-[6-(tert-Butylamino)-4-(trifluoromethyl)-3-pyridyl]-4-[(2S)-2-methylpyrrolidine-1-carbonyl]-N-tetrahydropyran-4-yl-thiazole-2-carboxamide] | 1.6 | 121 | 4.8 | –
C[C@H]1CCCN1C(=O)c1nc(C(=O)NC2(CO)CCC2)sc1-c1cnc(NC(C)(C)C)cc1C(F)(F)F [Example 262, 5-[6-(tert-Butylamino)-4-(trifluoromethyl)-3-pyridyl]-N-[1-(hydroxymethyl)cyclobutyl]-4-[(2S)-2-methylpyrrolidine-1-carbonyl]thiazole-2-carboxamide] | 1.6 | 104 | 20 | –
C[C@H](NC(=O)c1nc(C(=O)N2CCC[C@@H]2C)c(-c2cnc(N[C@@H](C3CC3)C(F)(F)F)cc2C(F)F)s1)C(C)(C)O [Example 312, 5-(6-(((S)-1-Cyclopropyl-2,2,2-trifluoroethyl)amino)-4-(difluoromethyl)pyridin-3-yl)-N—((S)-3-hydroxy-3-methylbutan-2-yl)-4-((S)-2-methylpyrrolidine-1-carbonyl)thiazole-2-carboxamide] | 2.2 | 106 | 27 | –
C[C@H]1CCCN1C(=O)c1nc(C(=O)N[C@H]2C[C@@H](O)C2)sc1-c1cnc(NC(C)(C)C)cc1C(F)(F)F [Example 251, 5-[6-(tert-Butylamino)-4-(trifluoromethyl)-3-pyridyl]-N-((1s,3R)-3-hydroxycyclobutyl)-4-[(2S)-2-methylpyrrolidine-1-carbonyl]thiazole-2-carboxamide] | 21 | 104 | 72 | –
C[C@H]1CCCN1C(=O)c1nc(C(=O)NC[C@H](O)C(F)(F)F)sc1-c1cnc(NC(C)(C)C)cc1C(F)(F)F (relative stereo) [Example 353, 5-(6-(tert-Butylamino)-4-(trifluoromethyl)pyridin-3-yl)-4-((S)-2-methylpyrrolidine-1-carbonyl)-N—((S*)-3,3,3-trifluoro-2-hydroxypropyl)thiazole-2-carboxamide] | 1.6 | 95 | 20 | –
CC[C@H](Nc1cc(C(F)F)c(-c2sc(C(=O)N[C@@H]3COC[C@H]3O)nc2C(=O)N2C3CCC2CC3)cn1)C(F)(F)F [Example 208, 4-((1s,4s)-7-Azabicyclo[2.2.1]heptane-7-carbonyl)-5-(4-(difluoromethyl)-6-(((1S)-1-(trifluoromethyl)propyl)amino)-3-pyridyl)-N-((3R,4S)-4-hydroxytetrahydrofuran-3-yl)thiazole-2-carboxamide] | 4.4 | – | – | RORγt (FL) Reporter Assay B or C, % inhibition (value marked *) (full-length human RORγt; Conditions B or C): 101* %; IC50 (full-length human RORγt; [5]): 54 nM
C[C@H]1CCCN1C(=O)c1nc(C(=O)NCC(C)(C)N)sc1-c1cnc(NC(C)(C)C)cc1C(F)(F)F [Example 355, N-(2-Amino-2-methyl-propyl)-5-[6-(tert-butylamino)-4-(trifluoromethyl)-3-pyridyl]-4-[(2S)-2-methylpyrrolidine-1-carbonyl]thiazole-2-carboxamide] | 22 | 98 | 170 | –
CC[C@H](Nc1cc(C(F)F)c(-c2sc(C(=O)N[C@@H]3CC[C@@H](O)C3)nc2C(=O)N2C3CCC2CC3)cn1)C(F)(F)F [Example 152] | 0.88 | – | – | IC50 (full-length human RORγt; [5]): 11 nM; inhibition at 6 µM (full-length human RORγt; read-out: RORγt (FL) Reporter Assay B or C, % inhibition @ 6 μM, Conditions B or C, @ 6 μM): 102%
C[C@H](Nc1cc(C(F)F)c(-c2sc(C(=O)N[C@@H]3CC[C@@H]3O)nc2C(=O)N2CCC[C@@H]2C)cn1)C(F)(F)F (relative stereo) [Example 391, 5-(4-(Difluoromethyl)-6-(((S)-1,1,1-trifluoropropan-2-yl)amino)pyridin-3-yl)-N-((1R*,2S*)-2-hydroxycyclobutyl)-4-((S)-2-methylpyrrolidine-1-carbonyl)thiazole-2-carboxamide] | 4.2 | 106 | 35 | –
CC[C@H](Nc1cc(C(F)F)c(-c2sc(C(=O)NC3CCC3O)nc2C(=O)N2CCC[C@@H]2C)cn1)C(F)(F)F (stereo partly drawn) [Example 375, 5-(4-(Difluoromethyl)-6-(((S)-1,1,1-trifluorobutan-2-yl)amino)pyridin-3-yl)-N-(trans-2-hydroxycyclobutyl)-4-((S)-2-methylpyrrolidine-1-carbonyl)thiazole-2-carboxamide] | 5.7 | 105 | 29 | –
C[C@H](Nc1cc(C(F)F)c(-c2sc(C(=O)NC3CCC3O)nc2C(=O)N2C3CCC2CC3)cn1)C(F)(F)F (stereo partly drawn) [Example 290, 4-((1s,4s)-7-Azabicyclo[2.2.1]heptane-7-carbonyl)-5-(4-(difluoromethyl)-6-(((S)-1,1,1-trifluoropropan-2-yl)amino)pyridin-3-yl)-N-(-trans-2-hydroxycyclobutyl)thiazole-2-carboxamide] | 6.3 | 103 | 6.5 | –
C[C@H](NC(=O)c1nc(C(=O)N2CCC[C@@H]2C)c(-c2cnc(NC3(C)CCC3)cc2C(F)F)s1)C(C)(C)O [Example 322, 5-(4-(Difluoromethyl)-6-((1-methylcyclobutyl)amino)pyridin-3-yl)-N—((S)-3-hydroxy-3-methylbutan-2-yl)-4-((S)-2-methylpyrrolidine-1-carbonyl)thiazole-2-carboxamide] | 1.8 | 106 | 49 | –
C[C@H]1CCCN1C(=O)c1nc(C(=O)N[C@H]2COC[C@@H]2O)sc1-c1cnc(NC(C)(C)C)cc1C(F)(F)F [Example 348, 5-[6-(tert-Butylamino)-4-(trifluoromethyl)-3-pyridyl]-N-[(3S,4R)-4-hydroxytetrahydrofuran-3-yl]-4-[(2S)-2-methylpyrrolidine-1-carbonyl]thiazole-2-carboxamide] | 0.9 | 105 | 3.1 | –
